Experimental data taken from ChEMBL document CHEMBL4706550, “Design, synthesis and biological activities of piperidine-spirooxadiazole derivatives as α7 nicotinic receptor antagonists” (Eur J Med Chem, 2020).
One block for each molecule: values may come before it. Active and inactive are the calls of the source. The calls are words filed in the database; no cut-off is given here.

Experiments:
[1] = biological target: T1, Neuronal acetylcholine receptor subunit alpha-7 (Homo sapiens, UniProt P36544); assay: Antagonist activity at human alpha7 nAChR expressed in Xenopus laevis oocytes assessed as inhibition of Ach-induced current at 100 uM measured at holding potential of -90 mV by two electrode voltage-clamp assay relative to control; format: cell-based; details: Oocyte
[2] = biological target: T1, Neuronal acetylcholine receptor subunit alpha-7; assay: Antagonist activity at human alpha7 nAChR expressed in Xenopus laevis oocytes assessed as inhibition of Ach-induced current at 30 uM measured at holding potential of -90 mV by two electrode voltage-clamp assay relative to control; format: cell-based; details: Oocyte
[3] = biological target: T1, Neuronal acetylcholine receptor subunit alpha-7; assay: Antagonist activity at human alpha7 nAChR expressed in Xenopus laevis oocytes assessed as inhibition of Ach-induced current measured at holding potential of -90 mV by two electrode voltage-clamp assay; format: cell-based, Oocyte
[4] = biological target: T2, Neuronal acetylcholine receptor; alpha3/beta4 (Rattus norvegicus) (UniProt P04757+P12392); assay: Antagonist activity at rat alpha3beta4 nAChR expressed in Xenopus laevis oocytes assessed as effect on nAChR current measured at holding potential of -90 mV by two electrode voltage-clamp assay; format: cell-based; details: Oocyte, dose 10.0 µM
[5] = biological target: T3, Neuronal acetylcholine receptor; alpha4/beta2 (Rattus norvegicus) (UniProt P09483+P12390); assay: Antagonist activity at rat alpha4beta2 nAChR expressed in Xenopus laevis oocytes assessed as effect on nAChR current at 10 uM measured at holding potential of -90 mV by two electrode voltage-clamp assay; format: cell-based; details: Oocyte
[6] = biological target: T2, Neuronal acetylcholine receptor; alpha3/beta4 (Rattus norvegicus); assay: Antagonist activity at rat alpha3beta4 nAChR expressed in Xenopus laevis oocytes assessed as inhibition of Ach-induced current at 10 uM measured at holding potential of -90 mV by two electrode voltage-clamp assay relative to control; format: cell-based; details: Oocyte
[7] = biological target: T3, Neuronal acetylcholine receptor; alpha4/beta2 (Rattus norvegicus); assay: Antagonist activity at rat alpha4beta2 nAChR expressed in Xenopus laevis oocytes assessed as inhibition of Ach-induced current at 10 uM measured at holding potential of -90 mV by two electrode voltage-clamp assay relative to control; format: cell-based; details: Oocyte
[8] = biological target: Neuronal acetylcholine receptor; alpha4/beta2 (Rattus norvegicus, UniProt P09483+P12390); assay: Antagonist activity at rat alpha4beta2 nAChR expressed in Xenopus laevis oocytes assessed as inhibition of Ach-induced current measured at holding potential of -90 mV by two electrode voltage-clamp assay; format: cell-based, Oocyte
[9] = Selectivity index, ratio of IC50 for rat alpha4beta2 nAChR expressed in Xenopus laevis oocytes to IC50 for human alpha7 nAChR expressed in Xenopus laevis oocytes; format: cell-based

T1 sequence (P36544 whole entry): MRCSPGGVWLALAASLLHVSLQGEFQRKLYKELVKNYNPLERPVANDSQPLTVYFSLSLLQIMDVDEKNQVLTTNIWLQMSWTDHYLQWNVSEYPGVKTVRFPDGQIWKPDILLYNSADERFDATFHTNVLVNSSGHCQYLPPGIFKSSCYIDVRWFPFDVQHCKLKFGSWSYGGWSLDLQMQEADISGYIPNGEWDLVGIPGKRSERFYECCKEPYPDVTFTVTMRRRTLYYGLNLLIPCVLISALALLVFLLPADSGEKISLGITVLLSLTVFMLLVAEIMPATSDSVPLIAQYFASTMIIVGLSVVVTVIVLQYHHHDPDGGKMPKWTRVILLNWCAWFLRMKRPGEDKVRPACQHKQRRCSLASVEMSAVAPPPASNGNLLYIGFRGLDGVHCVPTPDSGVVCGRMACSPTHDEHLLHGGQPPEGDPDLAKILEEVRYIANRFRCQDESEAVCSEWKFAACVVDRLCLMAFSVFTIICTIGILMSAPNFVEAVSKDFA
Sequence of Neuronal acetylcholine receptor; alpha4/beta2 (P09483 whole entry): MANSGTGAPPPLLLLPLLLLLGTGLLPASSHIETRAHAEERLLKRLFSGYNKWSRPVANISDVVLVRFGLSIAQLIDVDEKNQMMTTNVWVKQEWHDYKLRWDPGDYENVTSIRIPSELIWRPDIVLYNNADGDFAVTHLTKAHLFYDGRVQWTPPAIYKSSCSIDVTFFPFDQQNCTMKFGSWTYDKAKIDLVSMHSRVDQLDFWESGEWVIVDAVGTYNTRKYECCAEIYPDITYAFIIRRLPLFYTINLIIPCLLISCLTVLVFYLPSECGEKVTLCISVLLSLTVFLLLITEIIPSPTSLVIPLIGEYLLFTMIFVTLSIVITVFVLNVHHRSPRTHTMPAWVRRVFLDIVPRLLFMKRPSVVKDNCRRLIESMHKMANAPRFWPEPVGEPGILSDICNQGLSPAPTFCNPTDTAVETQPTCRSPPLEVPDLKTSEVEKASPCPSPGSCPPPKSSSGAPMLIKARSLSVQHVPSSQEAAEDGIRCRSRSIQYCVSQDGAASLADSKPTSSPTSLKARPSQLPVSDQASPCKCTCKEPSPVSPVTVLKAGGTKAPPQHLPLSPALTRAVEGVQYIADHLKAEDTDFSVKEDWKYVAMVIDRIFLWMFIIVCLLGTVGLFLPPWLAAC
Sequence of Neuronal acetylcholine receptor; alpha4/beta2 (P12390 whole entry): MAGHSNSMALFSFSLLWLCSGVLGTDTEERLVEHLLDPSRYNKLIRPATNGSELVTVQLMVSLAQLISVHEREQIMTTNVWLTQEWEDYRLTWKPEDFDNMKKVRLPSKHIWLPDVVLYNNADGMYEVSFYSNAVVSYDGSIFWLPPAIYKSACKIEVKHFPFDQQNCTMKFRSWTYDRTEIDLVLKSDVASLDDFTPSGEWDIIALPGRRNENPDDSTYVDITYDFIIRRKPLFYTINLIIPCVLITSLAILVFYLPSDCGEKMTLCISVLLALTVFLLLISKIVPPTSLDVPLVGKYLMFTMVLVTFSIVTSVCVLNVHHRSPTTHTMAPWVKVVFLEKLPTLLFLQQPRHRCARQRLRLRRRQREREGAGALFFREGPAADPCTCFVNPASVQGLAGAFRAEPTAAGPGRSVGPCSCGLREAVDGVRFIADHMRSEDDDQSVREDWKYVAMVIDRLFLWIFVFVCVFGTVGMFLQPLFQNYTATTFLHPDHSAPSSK

SMILES: Nc1cccc(-c2ccc(C3=NOC4(CCN(Cc5ccccc5)CC4)N3)cn2)c1
inhibition ([1]; filed as antagonist): 87.2%
inhibition ([2]; filed as antagonist): 61.8%

SMILES: c1ccc(CN2CCC3(CC2)NC(c2cc4ccccc4cn2)=NO3)cc1
inhibition ([1]; filed as antagonist): 91.1%
inhibition ([2]; filed as antagonist): 76.6%

SMILES: COc1cc(-c2ccc(C3=NOC4(CCN(Cc5ccccc5)CC4)N3)cc2)ccn1
inhibition ([1]; filed as antagonist): 89.9%
inhibition ([2]; filed as antagonist): 54.7%

SMILES: CN1CCC2(CC1)NC(c1ccccc1)=NO2
inhibition ([1]; filed as antagonist): 96.7%
inhibition ([2]; filed as antagonist): 90.4%
IC50 [3]: 4.4 µM

SMILES: c1ccc(CN2CCC3(CC2)NC(c2ccccn2)=NO3)cc1
inhibition ([1]; filed as antagonist): 68.7%
inhibition [2]: inactive

SMILES: Brc1ccc(C2=NOC3(CCN(Cc4ccccc4)CC3)N2)cc1
inhibition ([1]; filed as antagonist): 91.5%
inhibition ([2]; filed as antagonist): 90.8%
IC50 [3]: 6 µM

SMILES: c1ccc(CN2CCC3(CC2)NC(c2nccs2)=NO3)nc1
inhibition ([1]; filed as antagonist): 80%
inhibition [2]: 39.3%

SMILES: c1ccc(CN2CCC3(CC2)NC(c2cc4ccccc4cn2)=NO3)nc1
inhibition ([1]; filed as antagonist): 80%
inhibition [2]: 37.9%

SMILES: COc1cccc(-c2ccc(C3=NOC4(CCN(C)CC4)N3)cc2)c1
inhibition ([1]; filed as antagonist): 93.2%
inhibition ([2]; filed as antagonist): 81.3%

SMILES: c1ccc(CN2CCC3(CC2)NC(c2n[nH]c4ccccc24)=NO3)cc1
inhibition ([1]; filed as antagonist): 69.8%
inhibition [2]: inactive

SMILES: Fc1cccc(C2=NOC3(CCN(Cc4ccccc4)CC3)N2)c1
inhibition ([1]; filed as antagonist): 83.1%
inhibition ([2]; filed as antagonist): 65.9%

SMILES: COc1ccc(-c2ccc(C3=NOC4(CCN(Cc5ccccc5)CC4)N3)cc2)cc1
inhibition ([1]; filed as antagonist): 40.5%
inhibition [2]: inactive

SMILES: CN1CCC2(CC1)NC(c1ccc(Br)nc1)=NO2
inhibition ([1]; filed as antagonist): 83.4%
inhibition ([2]; filed as antagonist): 44.1%

SMILES: CCOC(=O)N1CCC2(CC1)NC(c1ccc(Br)cc1)=NO2
inhibition ([1]; filed as antagonist): 58.1%
inhibition [2]: inactive

SMILES: c1ccc(CN2CCC3(CC2)NC(C2CC2)=NO3)cc1
inhibition ([1]; filed as antagonist): 83.9%
inhibition ([2]; filed as antagonist): 52.2%

SMILES: Fc1ccc(CN2CCC3(CC2)NC(C2CC2)=NO3)cc1
inhibition ([1]; filed as antagonist): 83.9%
inhibition ([2]; filed as antagonist): 52.8%

SMILES: c1ccc(CN2CCC3(CC2)NC(c2ccc(-c4ccccc4)cc2)=NO3)cc1
inhibition ([1]; filed as antagonist): 71.4%
inhibition [2]: inactive

SMILES: CN1CCC2(CC1)NC(c1nccs1)=NO2
inhibition ([1]; filed as antagonist): 87.4%
inhibition ([2]; filed as antagonist): 69.7%

SMILES: FC(F)(F)c1cccc(-c2ccc(C3=NOC4(CCN(Cc5ccccc5)CC4)N3)cc2)c1
inhibition ([1]; filed as antagonist): 67%
inhibition [2]: inactive

SMILES: Cc1ccc(-c2ccc(C3=NOC4(CCN(Cc5ccccc5)CC4)N3)cc2)cc1
inhibition [1]: 34.9%
inhibition [2]: inactive

SMILES: Cc1ccccc1-c1ccc(C2=NOC3(CCN(Cc4ccccc4)CC3)N2)cc1
inhibition ([1]; filed as antagonist): 72%
inhibition [2]: inactive

SMILES: CN1CCC2(CC1)NC(c1ccc(-c3cccc(N)c3)cc1)=NO2
inhibition ([1]; filed as antagonist): 78.2%
inhibition [2]: inactive

SMILES: CC(C)(C)OC(=O)N1CCC2(CC1)NC(c1ccccc1)=NO2
inhibition ([1]; filed as antagonist): 73.5%
inhibition [2]: inactive

SMILES: COc1cc(-c2ccc(C3=NOC4(CCN(C)CC4)N3)cc2)ccn1
inhibition ([1]; filed as antagonist): 93.4%
inhibition ([2]; filed as antagonist): 86.1%
IC50 [3]: 3.3 µM

SMILES: CN(C)c1cccc(-c2ccc(C3=NOC4(CCN(Cc5ccccc5)CC4)N3)cc2)c1
inhibition ([1]; filed as antagonist): 81.1%
inhibition [2]: 39.5%

SMILES: c1ccc(CN2CCC3(CC2)NC(c2ccccc2)=NO3)cc1
inhibition ([1]; filed as antagonist): 98.2%
inhibition ([2]; filed as antagonist): 70.4%
IC50 [3]: 13.7 µM

SMILES: COc1ccc(C2=NOC3(CCN(Cc4ccccc4)CC3)N2)c(OC)c1
inhibition ([1]; filed as antagonist): 79.1%
inhibition [2]: inactive

SMILES: COc1cc(OC)cc(-c2ccc(C3=NOC4(CCN(Cc5ccccc5)CC4)N3)cc2)c1
inhibition ([1]; filed as antagonist): 73%
inhibition [2]: inactive

SMILES: CN1CCC2(CC1)NC(c1ccc(Br)cc1)=NO2
inhibition ([1]; filed as antagonist): 97.4%
inhibition ([2]; filed as antagonist): 91.8%
IC50 [3]: 5.4 µM
Activity [4]: inactive
Activity [5]: inactive
inhibition [6]: 20%
inhibition [7]: 24%
IC50 [8]: 32 µM
Ratio IC50 [9]: 6

SMILES: c1ccc(CN2CCC3(CC2)NC(c2cccs2)=NO3)cc1
inhibition ([1]; filed as antagonist): 74.9%
inhibition [2]: inactive

SMILES: c1ccc(C2=NOC3(CCN(Cc4ccccn4)CC3)N2)cc1
inhibition ([1]; filed as antagonist): 70.2%
inhibition [2]: inactive

SMILES: COc1cccc(-c2ccc(C3=NOC4(CCN(Cc5ccccc5)CC4)N3)cc2)c1
inhibition ([1]; filed as antagonist): 95.6%
inhibition ([2]; filed as antagonist): 76.9%

SMILES: c1ccc(CN2CCC3(CC2)NC(c2nccs2)=NO3)cc1
inhibition ([1]; filed as antagonist): 94.5%
inhibition ([2]; filed as antagonist): 65.1%

The next lines start with the values.

inhibition ([1]; filed as antagonist): 75.1%
inhibition [2]: inactive
SMILES: CCOC(=O)N1CCC2(CC1)NC(c1ccccc1)=NO2

inhibition ([1]; filed as antagonist): 81.1%
inhibition ([2]; filed as antagonist): 65%
SMILES: c1ccc(CN2CCC3(CC2)NC(c2ccc(-c4cccnc4)cc2)=NO3)cc1

inhibition ([1]; filed as antagonist): 71.1%
inhibition [2]: inactive
SMILES: c1ccc(CN2CCC3(CC2)NC(c2ccc(-c4cccs4)cc2)=NO3)cc1

inhibition ([1]; filed as antagonist): 58.2%
inhibition [2]: inactive
SMILES: COc1cccc(-c2ccc(C3=NOC4(CCN(Cc5ccccc5)CC4)N3)cn2)c1

inhibition ([1]; filed as antagonist): 52.8%
inhibition [2]: inactive
SMILES: Clc1ccc(-c2ccc(C3=NOC4(CCN(Cc5ccccc5)CC4)N3)cc2)cc1

inhibition [1]: 26.2%
inhibition [2]: inactive
SMILES: CC(C)c1cccc(-c2ccc(C3=NOC4(CCN(Cc5ccccc5)CC4)N3)cc2)c1

inhibition ([1]; filed as antagonist): 42.4%
inhibition [2]: inactive
SMILES: Fc1ccc(-c2ccc(C3=NOC4(CCN(Cc5ccccc5)CC4)N3)cc2)cc1

inhibition ([1]; filed as antagonist): 90.3%
inhibition ([2]; filed as antagonist): 63.7%
SMILES: Brc1ccc(C2=NOC3(CCN(Cc4ccccc4)CC3)N2)cn1

inhibition ([1]; filed as antagonist): 90.7%
inhibition ([2]; filed as antagonist): 77.4%
SMILES: Clc1ccc(C2=NOC3(CCN(Cc4ccccc4)CC3)N2)cc1

inhibition ([1]; filed as antagonist): 93.5%
inhibition ([2]; filed as antagonist): 60.1%
SMILES: Nc1cccc(-c2ccc(C3=NOC4(CCN(Cc5ccccc5)CC4)N3)cc2)c1

inhibition ([1]; filed as antagonist): 79.6%
inhibition [2]: inactive
SMILES: COc1ccc(C2=NOC3(CCN(Cc4ccccc4)CC3)N2)cc1

inhibition ([1]; filed as antagonist): 75.2%
inhibition [2]: inactive
SMILES: c1ccc(CN2CCC3(CC2)NC(c2ccc(-c4ccncc4)cc2)=NO3)cc1

inhibition ([1]; filed as antagonist): 78.3%
inhibition [2]: inactive
SMILES: Fc1ccc(C2=NOC3(CCN(Cc4ccccc4)CC3)N2)cc1

inhibition [1]: 36.5%
inhibition [2]: inactive
SMILES: FC(F)(F)c1ccc(-c2ccc(C3=NOC4(CCN(Cc5ccccc5)CC4)N3)cc2)cc1

inhibition ([1]; filed as antagonist): 80.4%
inhibition ([2]; filed as antagonist): 59%
SMILES: Oc1cccc(-c2ccc(C3=NOC4(CCN(Cc5ccccc5)CC4)N3)cc2)c1

inhibition ([1]; filed as antagonist): 75.4%
inhibition [2]: inactive
SMILES: Cc1cccc(C2=NOC3(CCN(Cc4ccccc4)CC3)N2)c1

inhibition ([1]; filed as antagonist): 58.2%
inhibition [2]: inactive
SMILES: c1ccc2cc(C3=NOC4(CCN(Cc5ccncc5)CC4)N3)ncc2c1

inhibition ([1]; filed as antagonist): 80.1%
inhibition [2]: 30%
SMILES: Cc1cccc(-c2ccc(C3=NOC4(CCN(Cc5ccccc5)CC4)N3)cc2)c1

inhibition [1]: 18.8%
inhibition [2]: inactive
SMILES: c1cc(CN2CCC3(CC2)NC(c2nccs2)=NO3)ccn1
